Laboratory results taken from US8178506B2, “Oligomeric compounds and compositions for use in modulation of small non-coding RNAs” (Regulus Therapeutics Inc., priority 2003, dated 2012).
Entries after “also recorded” stand apart in the source; their conditions may differ. In the oligonucleotide strings, read from the 5' end, every base follows the letter of its sugar. An asterisk marks phosphorothioate; unmarked linkages are phosphodiester. Other units and linkages are bracketed, terminal groups are in braces. A string of capitals states the bases alone. e = 2'-O-(2-methoxyethyl) (MOE); [5mC] = 5-methylcytosine; d = 2'-deoxy (DNA)

System: mir-21 pri-miRNA
Experiment: mir-21 pri-miRNA expression in HeLa cells (real-time RT-PCR)
Assay type: cell-based, human
Conditions: HeLa cells, 100 nM, real-time RT-PCR
Experimental: In one embodiment, the expression of mir-21 (noted to be expressed at high levels in HeLa cells) was assessed in cells treated with oligomeric compounds. Using the transfection methods previously described, HeLa cells were treated with 100 nM of the uniform 2′-MOE oligomeric compound ISIS Number 327917 (SEQ ID NO: 335) targeting the mir-21 mature miRNA. Total RNA was isolated by lysing cells in 1 mL TRIZOL™ (Invitrogen) using the manufacturer's recommended protocols. […] Real-time RT-PCR analysis was also performed on HeLa cells treated with ISIS 327917 using a primer/probe set specific for the mir-21 pri-miRNA molecule [forward primer=ISIS 339332 ([…]; herein incorporated as SEQ ID NO.: 911), reverse primer-ISIS 339333 (TCGACTGGTGTTGCCATGA; herein incorporated as SEQ ID NO.: 912), and probe=ISIS 339334 ([…]; herein incorporated as SEQ ID NO.: 913)]. Total RNA was quantified using RiboGreen™ RNA quantification reagent (Molecular Probes, Inc. Eugene, Oreg.), expression levels observed for the target were normalized to 5.8S rRNA, and values were expressed relative to an untreated control (UTC).
Using the real-time RT-PCR methods, the expression levels of the mir-21 pri-miRNA were compared in HeLa cells treated with this nested series of uniform 2′-MOE oligomeric compounds, targeting and spanning the entire length of the mir-21 pri-miRNA. ISIS Number 358768 (SEQ ID NO: 918) targets a region flanking the predicted 5′ Drosha cleavage site in the mir-21 pri-miRNA. ISIS Number 358777 (SEQ ID NO: 927) targets a region spanning the 3′ Drosha cleavage site in the mir-21 pri-miRNA. ISIS 358779 (SEQ ID NO: 929) targets a region flanking the predicted 3′ Drosha cleavage site in the mir-21 pri-miRNA. Additionally, oligomeric compounds ISIS 327917 (SEQ ID NO: 335), a uniform 2′-MOE compound targeting the mature mir-21 miRNA, and ISIS 345382 ([…]; SEQ ID NO: 335), a 5-10-7 phosphorothioate 2′-MOE gapmer targeting mir-21, were tested for comparison. Oligomeric compound ISIS 327863 ([…]; herein incorporated as SEQ ID NO: 936), a phosphorothioate 5-10-52′-MOE gapmer, was used as scrambled control. […] Total RNA was isolated by lysing cells in 1 mL TRIZOL™ (Invitrogen) using the manufacturer's recommended protocols. real-time RT-PCR analysis was performed using the primer/probe set specific for the mir-21 pri-miRNA molecule [forward primer=ISIS 339332 (SEQ ID NO.: 911), reverse primer-ISIS 339333 (SEQ ID NO.: 912), and probe=ISIS 339334 (SEQ ID NO.: 913)]. Total RNA was quantified using RiboGreen™ RNA quantification reagent (Molecular Probes, Inc. Eugene, Oreg.), expression levels observed for each target were normalized to 5.8S rRNA, and values were expressed relative to the untreated control (UTC). Effects on expression of the mir-21 pri-miRNA molecule resulting from treatment of HeLa cells with these uniform 2′-MOE oligomeric compounds is expressed as a percentage of RNA levels in untreated control cells.

Substance | mir-21 pri-miRNA expression % UTC
358781 (antisense eT*eA*eA*eT*eG*eT*eT*eT*eA*eA*eA*eT*eG*eA*eG*eA*eA*e[5mC]*eA*eT) [compound 358781] | 122 % UTC
358774 (antisense e[5mC]*eA*eT*e[5mC]*eG*eA*e[5mC]*eT*eG*eG*eT*eG*eT*eT*eG*e[5mC]*e[5mC]*eA*eT*eG) [compound 358774] | 104 % UTC
358780 (antisense eA*eA*e[5mC]*eA*eT*eT*eG*eG*eA*eT*eA*eT*eG*eG*eA*eT*eG*eG*eT*e[5mC]) [compound 358780] | 269 % UTC
358785 (antisense eG*eA*eA*eA*eG*eA*eT*eA*e[5mC]*e[5mC]*eA*eA*eA*eA*eT*eG*eT*e[5mC]*eA*eG) [compound 358785] | 257 % UTC
358783 (antisense eG*eA*eG*eT*eT*eT*e[5mC]*eT*eG*eA*eT*eT*eA*eT*eA*eA*eA*e[5mC]*eA*eA) [compound 358783] | 133 % UTC
358775 (antisense eA*e[5mC]*eA*eG*e[5mC]*e[5mC]*e[5mC]*eA*eT*e[5mC]*eG*eA*e[5mC]*eT*eG*eG*eT*eG*eT*eT) [compound 358775] | 222 % UTC
358776 (antisense eT*eG*eT*e[5mC]*eA*eG*eA*e[5mC]*eA*eG*e[5mC]*e[5mC]*e[5mC]*eA*eT*e[5mC]*eG*eA*e[5mC]*eT) [compound 358776] | 367 % UTC
358777 (antisense e[5mC]*e[5mC]*eA*eA*eA*eA*eT*eG*eT*e[5mC]*eA*eG*eA*e[5mC]*eA*eG*e[5mC]*e[5mC]*e[5mC]*eA) [compound 358777] | 536 % UTC
358770 (eA*eG*eT*e[5mC]*eT*eG*eA*eT*eA*eA*eG*e[5mC]*eT*eA*e[5mC]*e[5mC]*e[5mC]*eG*eA*e[5mC]; antisense) [compound 358770] | 250 % UTC
358784 (antisense e[5mC]*eG*eA*e[5mC]*eA*eA*eG*eG*eT*eG*eG*eT*eA*e[5mC]*eA*eG*e[5mC]*e[5mC]*eA*eT) [compound 358784] | 358 % UTC
358779 (antisense eG*eG*eT*e[5mC]*eA*eG*eA*eT*eG*eA*eA*eA*eG*eA*eT*eA*e[5mC]*e[5mC]*eA*eA) [compound 358779] | 646 % UTC
358782 (antisense eA*eA*e[5mC]*eA*eA*eT*eG*eA*eT*eG*e[5mC]*eT*eG*eG*eG*eT*eA*eA*eT*eG) [compound 358782] | 155 % UTC
327863 (antisense ACGCTAGCCTAATAGCGAGG; sugars from the 5' end e5 d10 e5, all phosphorothioate, methylation of C not given here) [compound 327863] | 107 % UTC
358771 (e[5mC]*eA*eA*e[5mC]*eA*eG*eT*e[5mC]*eA*eA*e[5mC]*eA*eT*e[5mC]*eA*eG*eT*e[5mC]*eT*eG; antisense) [compound 358771] | 181 % UTC
358767 (eG*eG*eA*eG*eA*eT*eG*eT*e[5mC]*eA*e[5mC]*eG*eA*eT*eG*eG*eT*eA*eG*eG; antisense) [compound 358767] | 248 % UTC
358773 (e[5mC]*eT*eG*eG*eT*eG*eT*eT*eG*e[5mC]*e[5mC]*eA*eT*eG*eA*eG*eA*eT*eT*e[5mC]; antisense) [compound 358773] | 148 % UTC

Same assay, conditions: HeLa, 100 nM

Substance | levels of the mir-21 pri-miRNA molecule
ISIS 358767: uniform 2′-MOE PS; targets mir-21 pri-miRNA (antisense eG*eG*eA*eG*eA*eT*eG*eT*e[5mC]*eA*e[5mC]*eG*eA*eT*eG*eG*eT*eA*eG*eG) | stimulate an increase in levels of the mir-21 pri-miRNA molecule
ISIS 358780: uniform 2′-MOE PS; targets mir-21 pri-miRNA (antisense eA*eA*e[5mC]*eA*eT*eT*eG*eG*eA*eT*eA*eT*eG*eG*eA*eT*eG*eG*eT*e[5mC]) | stimulate an increase in levels of the mir-21 pri-miRNA molecule
ISIS 358770: uniform 2′-MOE PS; targets mir-21 pri-miRNA (antisense eA*eG*eT*e[5mC]*eT*eG*eA*eT*eA*eA*eG*e[5mC]*eT*eA*e[5mC]*e[5mC]*e[5mC]*eG*eA*e[5mC]) | stimulate an increase in levels of the mir-21 pri-miRNA molecule
ISIS 358784: uniform 2′-MOE PS; targets mir-21 pri-miRNA (antisense e[5mC]*eG*eA*e[5mC]*eA*eA*eG*eG*eT*eG*eG*eT*eA*e[5mC]*eA*eG*e[5mC]*e[5mC]*eA*eT) | stimulate an increase in levels of the mir-21 pri-miRNA molecule
ISIS 358769: uniform 2′-MOE PS; targets mir-21 pri-miRNA (antisense eG*eA*eT*eA*eA*eG*e[5mC]*eT*eA*e[5mC]*e[5mC]*e[5mC]*eG*eA*e[5mC]*eA*eA*eG*eG*eT) | stimulate an increase in levels of the mir-21 pri-miRNA molecule
ISIS 358779: uniform 2′-MOE PS; SEQ ID NO: 929; region flanking 3′ Drosha cleavage site of mir-21 pri-miRNA (antisense eG*eG*eT*e[5mC]*eA*eG*eA*eT*eG*eA*eA*eA*eG*eA*eT*eA*e[5mC]*e[5mC]*eA*eA) [uniform 2′-MOE PS; region flanking 3′ Drosha cleavage site of mir-21 pri-miRNA] | stimulate an increase in levels of the mir-21 pri-miRNA molecule; also recorded: stimulate the greatest increases in expression of the mir-21 pri-miRNA
ISIS 358777: uniform 2′-MOE PS; SEQ ID NO: 927; region spanning 3′ Drosha cleavage site of mir-21 pri-miRNA (antisense e[5mC]*e[5mC]*eA*eA*eA*eA*eT*eG*eT*e[5mC]*eA*eG*eA*e[5mC]*eA*eG*e[5mC]*e[5mC]*e[5mC]*eA) [uniform 2′-MOE PS; region spanning 3′ Drosha cleavage site of mir-21 pri-miRNA] | stimulate an increase in levels of the mir-21 pri-miRNA molecule; also recorded: stimulate the greatest increases in expression of the mir-21 pri-miRNA
ISIS 358768: uniform 2′-MOE PS; SEQ ID NO: 918; region flanking 5′ Drosha cleavage site of mir-21 pri-miRNA (antisense eA*eG*eG*eT*eG*eG*eT*eA*e[5mC]*eA*eG*e[5mC]*e[5mC]*eA*eT*eG*eG*eA*eG*eA) [uniform 2′-MOE PS; region flanking 5′ Drosha cleavage site of mir-21 pri-miRNA] | stimulate an increase in levels of the mir-21 pri-miRNA molecule; also recorded: stimulate the greatest increases in expression of the mir-21 pri-miRNA
ISIS 358785: uniform 2′-MOE PS; targets mir-21 pri-miRNA (antisense eG*eA*eA*eA*eG*eA*eT*eA*e[5mC]*e[5mC]*eA*eA*eA*eA*eT*eG*eT*e[5mC]*eA*eG) | stimulate an increase in levels of the mir-21 pri-miRNA molecule
ISIS 358775: uniform 2′-MOE PS; targets mir-21 pri-miRNA (antisense eA*e[5mC]*eA*eG*e[5mC]*e[5mC]*e[5mC]*eA*eT*e[5mC]*eG*eA*e[5mC]*eT*eG*eG*eT*eG*eT*eT) | stimulate an increase in levels of the mir-21 pri-miRNA molecule

Same assay, conditions: HeLa, 25, 50, 100 and 200 nM

Substance | mir-21 pri-miRNA levels, dose response
ISIS 358779: uniform 2′-MOE PS; SEQ ID NO: 929; region flanking 3′ Drosha cleavage site of mir-21 pri-miRNA (antisense eG*eG*eT*e[5mC]*eA*eG*eA*eT*eG*eA*eA*eA*eG*eA*eT*eA*e[5mC]*e[5mC]*eA*eA) [uniform 2′-MOE PS; region flanking 3′ Drosha cleavage site of mir-21 pri-miRNA] | dose-responsive induction of mir-21 pri-miRNA levels
ISIS 358768: uniform 2′-MOE PS; SEQ ID NO: 918; region flanking 5′ Drosha cleavage site of mir-21 pri-miRNA (antisense eA*eG*eG*eT*eG*eG*eT*eA*e[5mC]*eA*eG*e[5mC]*e[5mC]*eA*eT*eG*eG*eA*eG*eA) [uniform 2′-MOE PS; region flanking 5′ Drosha cleavage site of mir-21 pri-miRNA] | dose-responsive induction of mir-21 pri-miRNA levels
